Test results as given in patent US9518901B2, “Pretreatment method of biological sample, detection method of RNA, and pretreatment kit” (KABUSHIKI KAISHA DNAFORM, priority 2011, dated 2016).

What was measured:
[1] = cited from earlier work
[2] = test system: template RNA, influenza A(H3N2) NA region 675-1075 bases; test: RT-SmartAmp nucleic acid amplification inhibition due to SDS (DNA polymerase inhibitory activity), without rhinal mucosa; type: biochemical; settings: 0.5% Triton X-100 in reaction solution, 5 μL of 0.1% SDS solution added; FIG. 10

Row | Molecule | pKa [1] | nucleic acid amplification activity (mitigation of inhibition due to SDS) [2]
1 | O=S(=O)(O)CCN1CCOCC1 [MES] | 6.15 | 
2 | Triton X-100 |  | prominent nucleic acid amplification was recognized
